Assays:
[1] = tested on: DUX4; test: ddPCR of transfected DUX4 in drug-treated HEK293 cells; assay type: cell-based, human; conditions: vs ethanol vehicle
Protocol: Digital Droplet PCR (ddPCR). For mir-675 and mi405 constructs, RNA extraction was carried out as described for QPCR above. For cDNA synthesis, the TaqMan advanced cDNA synthesis kit (Thermo Fisher) was used and cDNA was prepared by following manufacturer's instructions. ddPCR was carried out using 1× ddPCR Supermix for probes (No dUTP) (Bio-Rad), 1× commercially available mir-675 advanced TaqMan probe, or a custom made mi405 advanced TaqMan probe (ThermoFisher) and 50 ng of cDNA. For DUX4 cDNA synthesis, the High-Capacity cDNA Reverse Transcription Kit (Applied Biosystems) was used according to manufacturer's instructions. Within the same cDNA reaction, 1×RT random hexamer primers and 25 pmoles of the Oligo(dT) primer were used to generate cDNA for DUX4 and DUX4-responsive biomarkers and for mouse Rpl13A, used as a reference gene. To quantify DUX4, the ddPCR reaction mixture (20 μL) contained 1× ddPCR Evagreen Supermix (Bio-Rad), 1 μM of forward and reverse DUX4 primers (Sharma et al., J Genet Syndr Gene Ther 2016 August; 7(4):303. doi: 10.4172/2157-7412.1000303. Epub 2016 Aug. 8), and 50 ng of cDNA. To quantify Rpl13A and DUX4-responsive biomarkers (Trim36 and Wfdc3), the 1× ddPCR Supermix for probes (No dUTP) and TaqMan specific probes were used for each of the genes. Droplets were generated using the Automatic Droplet generator QX200 AutoDG (Bio-Rad), the reactions were amplified in a C1000 Touch™ Thermal Cycler with 96-Deep Well Reaction Module (Bio-Rad). […] Droplets were then read using the QX200 droplet reader (Bio-Rad). Finally, data were analyzed using the QuantaSoft analysis software (Bio-Rad). For quantification, each reaction of 20 μL was estimated to give at least 10,000 acceptable droplets.
Three small molecule candidates (β-estradiol, a combination of β-estradiol+medroxyprogesterone acetate (MPA), and melatonin) were tested for their ability to upregulate mir-675-5p in HEK293 cells and in human myotubes. […] 24 hours after treatment, mir-675-5p expression was measured by Droplet Digital PCR (ddPCR). […]

[2] = tested on: TRIM43; test: ddPCR of TRIM43 in drug-treated FSHD myotubes; assay type: cell-based, human; conditions: for TRIM43 (% decrease): 20 μM; for reduction of TRIM43 expression: 18A FSHD myotubes, 40 μM, added 4th day, collected 5th day of differentiation
Description: (§1) Primary Cell Culture. 15A, 17A sand 18A FSHD human myoblasts and 15V control human myoblasts were provided by the UMMS Wellstone Center for FSHD and have been previously characterized [Jones et al., Hum. Mol. Genet. 21: 4419-4430 (2012)]. Previously immortalized 15A cell lines have a single 4qA permissive allele. […] 15V cell lines have two 4qB non-permissive alleles. Cells were propagated by feeding them every two days with new LHCN medium [4:1 DMEM:Medium 199 (Gibco) supplemented with 15% characterized FBS (Corning), 0.02 M HEPES (Thermo Fisher), 0.03 μg/mL ZnSO4 (Honeywell Fluka), 1.4 μg/mL Vitamin B12 (Sigma-Aldrich), 0.055 μg/mL dexamethasone (Sigma-Aldrich), 1% antibiotics/antimycotics (Gibco), 2.5 ng/mL hepatocyte growth factor (Millipore) and 10 ng/mL basic fibroblast growth factor (Millipore)]. For differentiation, myoblasts were switched to a differentiation medium [4:1 DMEM: Medium 199 (Gibco) supplemented with 15% KnockOut Serum Replacement (ThermoFisher Scientific), 2 mM L-glutamine (Gibco), 1% antibiotics/antimycotics (Gibco), 1 mM sodium pyruvate (Gibco) and 20 mM HEPES (ThermoFisher Scientific)] when cells were at >90% confluency. Before adding differentiation medium, cells were washed with PBS (Gibco). Cells were seeded with new differentiation medium every three days for up to 7 days. To detach cells, TrypLE™ Express, phenol red (ThermoFisher Scientific) was used.
(§2) Digital Droplet PCR (ddPCR). For mir-675 and mi405 constructs, RNA extraction was carried out as described for QPCR above. For cDNA synthesis, the TaqMan advanced cDNA synthesis kit (Thermo Fisher) was used and cDNA was prepared by following manufacturer's instructions. ddPCR was carried out using 1× ddPCR Supermix for probes (No dUTP) (Bio-Rad), 1× commercially available mir-675 advanced TaqMan probe, or a custom made mi405 advanced TaqMan probe (ThermoFisher) and 50 ng of cDNA. For DUX4 cDNA synthesis, the High-Capacity cDNA Reverse Transcription Kit (Applied Biosystems) was used according to manufacturer's instructions. Within the same cDNA reaction, 1×RT random hexamer primers and 25 pmoles of the Oligo(dT) primer were used to generate cDNA for DUX4 and DUX4-responsive biomarkers and for mouse Rpl13A, used as a reference gene. To quantify DUX4, the ddPCR reaction mixture (20 μL) contained 1× ddPCR Evagreen Supermix (Bio-Rad), 1 μM of forward and reverse DUX4 primers (Sharma et al., J Genet Syndr Gene Ther 2016 August; 7(4):303. doi: 10.4172/2157-7412.1000303. Epub 2016 Aug. 8), and 50 ng of cDNA. To quantify Rpl13A and DUX4-responsive biomarkers (Trim36 and Wfdc3), the 1× ddPCR Supermix for probes (No dUTP) and TaqMan specific probes were used for each of the genes. Droplets were generated using the Automatic Droplet generator QX200 AutoDG (Bio-Rad), the reactions were amplified in a C1000 Touch™ Thermal Cycler with 96-Deep Well Reaction Module (Bio-Rad). Cycling conditions were set up following the QX200 ddPCR Evagreen Supermix protocol. All assays are compatible with an annealing temperature of 58° C. Droplets were then read using the QX200 droplet reader (Bio-Rad). Finally, data were analyzed using the QuantaSoft analysis software (Bio-Rad). For quantification, each reaction of 20 μL was estimated to give at least 10,000 acceptable droplets.
(§3) Next, the effects of the three treatment regimens were tested on the expression of endogenous mir-675-5p, DUX4 and TRIM43 in 15A, 17A and 18A FSHD differentiated muscle cell lines (myotubes) (FIG. 29 and Table 4). […] Mol. Genet. 21: 4419-30 (2012)]. In FIG. 29, β-estradiol, medroxyprogesterone acetate (MPA) and melatonin increased mir-675 expression and reduced the expression of DUX4 and the DUX4-induced biomarker TRIM43 in three FSHD affected myotube lines. Droplet digital PCR (ddPCR) was used to measure mir-675-5p, DUX4 and TRIM43 levels in 15A (A), 17A (B) and 18A (C) FSHD affected myotubes five days after differentiation. […]

[3] = tested on: mir-675-5p; test: ddPCR of mir-675-5p in drug-treated FSHD myotubes; assay type: cell-based, human; conditions: 20 μM
Description: as §1, §2, §3

[4] = tested on: DUX4; test: ddPCR of DUX4 in drug-treated FSHD myotubes; assay type: cell-based, human; conditions: for DUX4 (% decrease): 20 μM
Description: as §1, §2, §3

[5] = tested on: mir-675-5p; test: ddPCR of mir-675-5p in drug-treated DUX4-transfected HEK293 cells; assay type: cell-based, human; conditions: vs ethanol vehicle
Protocol: as §2
Three small molecule candidates (β-estradiol, a combination of β-estradiol+medroxyprogesterone acetate (MPA), and melatonin) were tested for their ability to upregulate mir-675-5p in HEK293 cells and in human myotubes. HEK293 cells normally express minimal amounts of mir-675. […] 24 hours after treatment, mir-675-5p expression was measured by Droplet Digital PCR (ddPCR).
In FIG. 28, β-estradiol, medroxyprogesterone acetate (MPA) and melatonin increased mir-675 expression and reduced the expression of DUX4 and DUX4-induced biomarker TRIM43 in HEK293 cells. […] The effects of these drugs were evaluated by comparison to ethanol (vehicle)-treated cells. […] The quantification (percent change) of gene expression from HEK293 cells treated with β-estradiol, β-estradiol+MPA, or melatonin was measured using droplet digital PCR (ddPCR) and is reported in Table 3 set out below. […]

[6] = tested on: TRIM43; test: ddPCR of TRIM43 in drug-treated DUX4-transfected HEK293 cells; assay type: cell-based, human; conditions: for TRIM43 (% decrease): vs ethanol vehicle
Protocol: as §2
Three small molecule candidates (β-estradiol, a combination of β-estradiol+medroxyprogesterone acetate (MPA), and melatonin) were tested for their ability to upregulate mir-675-5p in HEK293 cells and in human myotubes. HEK293 cells normally express minimal amounts of mir-675. HEK293 cells were treated with (1) 20 μM β-estradiol alone; (2) 10 μM or 20 μM β-estradiol+MPA; or (3) 20 μM or 40 μM melatonin. 24 hours after treatment, mir-675-5p expression was measured by Droplet Digital PCR (ddPCR).
In FIG. 28, β-estradiol, medroxyprogesterone acetate (MPA) and melatonin increased mir-675 expression and reduced the expression of DUX4 and DUX4-induced biomarker TRIM43 in HEK293 cells. Droplet Digital PCR (ddPCR) was carried out to measure mir-675-5p, DUX4 and TRIM43 levels. HEK293 cells were transfected with DUX4 and were treated with two drugs individually (i.e., β-estradiol and melatonin) or with a combination of β-estradiol and MPA at 10, 20 or 40 μM at the time of transfection. The effects of these drugs were evaluated by comparison to ethanol (vehicle)-treated cells. Numbers correspond to n=3 independent experiments (ANOVA, P<0.0001). The quantification (percent change) of gene expression from HEK293 cells treated with β-estradiol, β-estradiol+MPA, or melatonin was measured using droplet digital PCR (ddPCR) and is reported in Table 3 set out below. Anti-mir-675 is an antagomiR targeting the mature sequence of mir-675-5p, inhibiting its function as inhibitor of DUX4 gene expression. CMV.DUX4-mir-675Res is an expression plasmid encoding a DUX4 mutant sequence. […]

[7] = tested on: ZSCAN4; test: ddPCR of ZSCAN4 in drug-treated 18A FSHD myotubes; assay type: cell-based, human; conditions: 40 μM, added 4th day, collected 5th day of differentiation
Protocol: 18A FSHD affected muscles cell lines were treated with increasing concentrations of Pyrazinamide or Sorafenib at the 4th day of differentiation into myotubes. Cells were collected at the 5th day of differentiation. RNA was extracted and ddPCR gene expression analysis on DUX4, TRIM43 and ZSCAN4 was carried out. As a result, 40 μM of Pyrazinamide reduced TRIM43 and ZSCAN4 expression by 35±7% (ANOVA, P=0.0378, N=3 independent experiments) and 42±6% (ANOVA, P=0.0043, N=3 independent experiments), respectively (FIG. 35). Sorafenib reduced DUX4, TRIM43 and ZSCAN4 expression in a dose dependent manner, where it reached maximum inhibition when used at a concentration of 40 μM. At the latter, Sorafenib reduced DUX4, TRIM43 and ZSCAN4 expression by 40±10% (ANOVA, P=0.0486, N=3 independent experiments), 70±4% (ANOVA, P=0.0003, N=3 independent experiments) and 68±3% (ANOVA, P=0.0001, N=3 independent experiments), respectively (FIG. 35).

[8] = tested on: mir-675; conditions: published gene expression studies; cited from earlier work

SMILES	DUX4 (% decrease) ([1]; 20 μM)	TRIM43 (% decrease) ([2]; 15A 5DD myotubes, N = 6)	TRIM43 (% decrease) ([2]; 17A 5DD myotubes, N = 3)	TRIM43 (% decrease) ([2]; 18A 5DD myotubes, N = 3)	mir-675-5p (% increase) ([3]; 15A 5DD myotubes, N = 6)	mir-675-5p (% increase) ([3]; 17A 5DD myotubes, N = 3)	mir-675-5p (% increase) ([3]; 18A 5DD myotubes, N = 3)	DUX4 (% decrease) ([4]; 15A 5DD myotubes, N = 6)	DUX4 (% decrease) ([4]; 17A 5DD myotubes, N = 3)	DUX4 (% decrease) ([4]; 18A 5DD myotubes, N = 3)	mir-675-5p (% increase) ([5]; 20 μM)	TRIM43 (% decrease) ([6]; 20 μM, HEK293)	reduction of ZSCAN4 expression [7]	mir-675 expression [8]	reduction of TRIM43 expression [2]	other results
C[C@]12CC[C@@H]3c4ccc(O)cc4CC[C@H]3[C@@H]1CC[C@@H]2O [β-estradiol]	significant decrease	46 ± 40 | NS, %	31 ± 12 | *, %	57 ± 07 | ** , %	47 ± 11 | *, %	38 ± 09 | *, %	382 ± 44 | ***, %	70 ± 38 | *, %	63 ± 19 | *, %	49 ± 19 | *, %	92 ± 34%	significant decrease	–	–	–	mir-675-5p (% increase) ([5]; 10 μM): 22 ± 06%
CNC(=O)c1cc(Oc2ccc(NC(=O)Nc3ccc(Cl)c(C(F)(F)F)c3)cc2)ccn1 [Sorafenib, 4-[4-[[4-chloro-3-(trifluoromethyl)phenyl]carbamoylamino]phenoxy]-N-methylpyridine-2-carboxamide]	–	–	–	–	–	–	–	–	–	–	–	–	68±3%	upregulated mir-675 expression	70±4%	reduction of DUX4 expression ([4]; 18A FSHD myotubes, 40 μM, added 4th day, collected 5th day of differentiation): 40±10%
NC(=O)c1cnccn1 [Pyrazinamide, pyrazine-2-carboxamide]	–	–	–	–	–	–	–	–	–	–	–	–	42±6%	upregulated mir-675 expression	35±7%	–
COc1ccc2[nH]cc(CCNC(C)=O)c2c1 [Melatonin, melatonin]	90 ± 01%	75 ± 45 | *, %	30 ± 12 | *, %	70 + 15 | ***, %	44 ± 16 | *, %	48 ± 09 | **, %	154 ± 59 | *, %	88 ± 40 | **, %	55 ± 09 | *, %	38 ± 17 | *, %	229 ± 53%	52 ± 01%	–	mir-675 was induced	–	DUX4 (% decrease) ([1]; 40 μM): 93 ± 01%; mir-675-5p (% increase) ([5]; 40 μM): 246 ± 53%; +anti-mir-675 (300 nM) TRIM43 (% increase) ([6]; 20 μM, HEK293, co-transfected anti-mir-675 300 nM): 21 ± 01%; TRIM43 (% decrease) ([6]; 40 μM, HEK293): 58 ± 01%; +CMV.DUX4-mir-675Res TRIM43 (% decrease) ([6]; 40 μM, HEK293 transfected with CMV.DUX4-mir-675Res): 0.1 ± 16%
